According to US20100303790A1, “USE OF BILIVERDIN REDUCTASE (BVR) AND BVR PEPTIDE FRAGMENTS TO TREAT CORONARY DISORDERS” (UNIVERSITY OF ROCHESTER, priority 2009, published 2010):
Entries after “also recorded” stand apart in the source; their conditions may differ.

Assays:
[1] = system: rat neonatal cardiomyocytes; conditions: literature (Hu et al. 2006); cited from earlier work
[2] = Langendorff perfused heart: BVR and HO-2 protein by western blot; assay type: in vivo, rat; conditions: 3 hours perfusion; for HO-2 protein expression: peptide 25 μM with 0.1 μM ISO; for BVR protein expression: peptide 25 μM
Description: Western Blot Analysis: Cell lysates were prepared by homogenization in RIPA buffer (40 mM Tris-HCl, pH 7.5, 1 mM EDTA, 1 mM DTT, 0.1 mM Na3VO4, 10 μg/ml aprotinin, 5 μg/ml pepstatin, 20 μg/ml leupeptin, 1 mM bezamidine followed by centrifugation at 800×g for 10 minutes at 4° C. (Ding et al., “Functional Role of Phosphodiesterase 3 in Cardiomyocyte Apoptosis: Implication in Heart Failure,” Circulation 111:2469-2476 (2005), which is hereby incorporated by reference in its entirety). Supernatant proteins were resolved by SDS-PAGE and transferred to nitrocellulose. Western blots were examined using antibodies against β-actin (Cell Signaling), BVR (Huang et al., “Detection of 10 Variants of Biliverdin Reductase in Rat Liver by Two-Dimensional Gel Electrophoresis,” J Biol Chem 264:7844-7849 (1989), which is hereby incorporated by reference in its entirety), HO-1, HO-2 (Panahian et al., “Site of Injury-Directed Induction of Heme Oxygenase-1 and -2 in Experimental Spinal Cord Injury Differential Functions in Neuronal Defense Mechanisms?” J Neurochem 76:539-554 (2001), which is hereby incorporated by reference in its entirety), and cleaved caspase-3 (Cell Signaling, Beverly Mass.). The secondary antibody was horseradish peroxidase-conjugated goat anti-rabbit IgG (1:2,000, Bio-Rad).
In Vivo Experimental Langendorff Model: Male Sprague-Dawley rats weighing 250-300 g (Charles River, Boston, Mass.) were used in this study; the protocol is based on that described by Tompkins et al., “Mitochondrial Dysfunction in Cardiac Ischemia-Reperfusion Injury: ROS From Complex I, Without Inhibition,” Biochim Biophys Acta 1762:223-231 (2006), which is hereby incorporated by reference in its entirety, with minor modification. The rats were fed a standard rat chow and had water ad libitum. All experiments were approved by the University of Rochester Institutional Animal Care and Use Committee. Rats were given two subcutaneous injections of isoproterenol (ISO) (0.01 mg/kg), 6 hours apart, then anesthetized with freshly prepared Avertin (2,2,2-tribromoethanol, […] injected intraperitoneally), and treated with heparin (5000 U/kg), i.p., to protect the heart against microthrombi. The aorta was cannulated in situ with a 22-gauge needle filled with warm Krebs-Henseleit (KH) buffer. The heart was rapidly transferred (<10 s.) to a perfusion apparatus, and retrograde (Langendorff) perfusion begun with 37° C. KH buffer gassed with 95% O2 plus 5% CO2, in constant flow mode (12 ml/min). […] Hemodynamics and heart rate were recorded by inserting a water-filled balloon connected to a transducer (Radnoti LLC, model no. 159904B) into the left ventricle. […]

BVR = target: T1, BVR (Homo sapiens, UniProt P53004, A154S/E160D/G155D); conditions: Lerner-Marmarosh et al. 2007; cited from earlier work
T1 sequence (P53004 3-296 A154S/G155D/E160D): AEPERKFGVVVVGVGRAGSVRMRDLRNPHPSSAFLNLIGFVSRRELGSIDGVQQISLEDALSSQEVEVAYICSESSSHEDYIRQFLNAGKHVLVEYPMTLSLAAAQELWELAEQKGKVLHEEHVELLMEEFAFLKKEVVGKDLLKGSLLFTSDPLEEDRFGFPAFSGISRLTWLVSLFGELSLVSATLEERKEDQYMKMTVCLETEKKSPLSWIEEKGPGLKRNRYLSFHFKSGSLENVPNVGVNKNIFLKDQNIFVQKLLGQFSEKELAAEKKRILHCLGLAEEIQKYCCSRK

Molecule	cardiomyocyte apoptosis [1]	HO-2 protein expression [2]	BVR protein expression [2]	effect on BVR activity (BVR)
CC(C)NCC(O)c1ccc(O)c(O)c1 (stereo not shown) [isoproterenol]	increases cardiomyocyte apoptosis			
KKRILHC (biliverdin reductase peptide) [KKRILHC^281]		inhibited the BVR-induced HO-2 increase; also recorded: virtually eliminated the induction of HO-2	do not affect protein expression	potent inhibitor
KYCCSRK (biliverdin reductase peptide) [KYCCSRK^296]		increased HO-2 protein expression; also recorded: greatly enhanced increase of HO-2 protein	do not affect protein expression	activator
